According to patent US20120004244A1, “Bis Aromatic Compounds for Use as LTC4 Synthase Inhibitors” (BIOLIPOX AB, priority 2009, published 2012):

Target: T1, Recombinant human LTC4 synthase (Homo sapiens, UniProt Q16873)
T1 construct: made in house; host or cells: Pichia pastoris ('Piccia pastoralis' [sic])
T1 sequence (Q16873 1-150): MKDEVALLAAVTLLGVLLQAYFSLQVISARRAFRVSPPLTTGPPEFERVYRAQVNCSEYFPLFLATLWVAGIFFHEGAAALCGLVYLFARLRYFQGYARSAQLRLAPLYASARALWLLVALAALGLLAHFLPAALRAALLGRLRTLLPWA
Test: LTC4 synthase in vitro assay (LTA4 to LTC4, HTRF detection)
Format: biochemical
Settings: for inhibition at 10 µM: 5 min, total concentration of title compound in the assay 10 μM
Procedure, shortened: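 Purified recombinant human LTC4 synthase expressed in Pichia (0.5 μg/mL total protein) was preincubated with inhibitor at 10 μM final for 10 min at room temperature in PBS pH 7.4 with 5 mM GSH. LTA4 was then added at 2.5 μM final, and after 5 min at room temperature LTC4 was detected by HTRF.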

| SMILES | IC50 | inhibition at 10 µM |
| --- | --- | --- |
| C=CCN(c1ccc(Cl)cc1)c1ccc(C(=O)c2ccc(Oc3ccccc3)c(C(=O)O)c2)nc1 [1:8, 5-{5-[(Allyl)(4-chlorophenyl)amino]picolinoyl}-2-phenoxybenzoic acid] | 88 nM | 100% |
| O=C(c1ccc(Oc2ccccc2Oc2cccnc2)c(C(=O)O)c1)c1ccc(N(CC2CC2)c2ccc(Cl)cc2)cn1 [1:43, 5-{5-[(4-Chlorophenyl)(cyclopropylmethyl)amino]picolinoyl}-2-[2-(3-pyridyloxy)phenoxy]benzoic acid] | 61 nM |  |
| CN(c1ccc(Cl)cc1)c1ccc(C(=O)c2ccc(-c3ccccc3C(F)(F)F)c(C(=O)O)c2)nc1 [21:1, 4-{5-[(4-Chlorophenyl)methylamino]pyridine-2-carbonyl}-2′-trifluoromethyl-biphenyl-2-carboxylic acid] | 138 nM |  |
| CN(c1ccc(Cl)cc1)c1ccc(C(=O)c2ccc(NC(=O)c3ccc4c(c3)OCCO4)c(C(=O)O)c2)nc1 [3:19, 5-{5-[(4-Chlorophenyl)(methyl)amino]picolinoyl}-2-(3,4-ethylenedioxy-benzamido)benzoic acid] | 17 nM |  |
| CN(c1ccc(Cl)cc1)c1ccc(C(=O)c2ccc(-n3nncc3-c3ccccc3)c(C(=O)O)c2)nc1 [17:1, 5-{5-[(4-Chlorophenyl)(methyl)amino]picolinoyl}-2-(5-phenyl-1,2,3-triazol-1-yl)-benzoic acid] | 116 nM | 98% |
| COc1ccccc1CNc1ccc(C(=O)c2ccc(N(C)c3ccc(Cl)cc3)cn2)cc1C(=O)O [2:8, 5-{5-[(4-Chlorophenyl)(methyl)amino]picolinoyl}-2-(2-methoxybenzylamino)benzoic acid] | 132 nM |  |
| CN(c1ccc(Cl)cc1)c1ccc(C(=O)c2ccc(C(=O)c3ccc([N+](=O)[O-])cc3)c(C(=O)O)c2)nc1 [5:12] | 202 nM |  |
| CN(c1ccc(Cl)cc1)c1ccc(C(=O)c2ccc(-n3nc(C(F)(F)F)cc3-c3ccc(Cl)cc3)c(C(=O)O)c2)nc1 [18:7, 5-{5-[(4-Chlorophenyl)(methyl)amino]picolinoyl}-2-[5-(4-chlorophenyl)-3-trifluoromethylpyrazol-1-yl]benzoic acid] | 250 nM |  |
| COc1cccc(COc2ccc(C(=O)c3ccc(N(C)c4ccc(Cl)cc4)cn3)cc2C(=O)O)c1 [12:6, 5-{5-[(4-Chlorophenyl)(methyl)amino]picolinoyl}-2-(3-methoxybenzyloxy)-benzoic acid] | 219 nM |  |
| CN(c1ccc(C(F)(F)F)cc1)c1ccc(C(=O)c2ccc(Oc3ccccc3)c(C(=O)O)c2)nc1 [1:15, 5-{5-[(Methyl)(4-trifluoromethylphenyl)amino]picolinoyl}-2-phenoxybenzoic acid] | 465 nM | 99% |
| CN(c1ccc(Cl)cc1)c1ccc(C(=O)c2ccc(-n3cccc3-c3ccccc3)c(C(=O)O)c2)nc1 [20:2, 5-{5-[(4-Chlorophenyl)(methyl)amino]picolinoyl}-2-(2-phenylpyrrol-1-yl)benzoic acid] | 64 nM |  |
| CN(c1ccc(C(=O)c2ccc(Oc3ccccc3)c(C(=O)O)c2)nc1)c1cccc(C(F)(F)F)c1 [1:11, 5-{5-[(Methyl)(3-trifluoromethylphenyl)amino]picolinoyl}-2-phenoxybenzoic acid] | 176 nM | 99% |
| CN(c1ccc(Cl)cc1)c1ccc(C(=O)c2ccc(Oc3ccccc3)c(C(=O)O)c2)cn1 [6:1] | 667 nM | 94% |
| COc1cccc(Oc2ccc(C(=O)c3ccc(N(CC4CC4)c4ccc(Cl)cc4)cn3)cc2C(=O)O)c1 [1:30, 5-{5-[(4-Chlorophenyl)(cyclopropylmethyl)amino]picolinoyl}-2-(3-methoxyphenoxy)benzoic acid] | 158 nM |  |
| COc1cc(OC)cc(Oc2ccc(C(=O)c3ccc(N(CC4CC4)c4ccc(Cl)cc4)cn3)cc2C(=O)O)c1 [1:39, 5-{5-[(4-Chlorophenyl)(cyclopropylmethyl)amino]picolinoyl}-2-(3,5-dimethoxyphenoxy)benzoic acid] | 70 nM |  |
| O=C(Nc1ccc(C(=O)c2ccc(N(CC3CC3)c3ccc(Cl)cc3)cn2)cc1C(=O)O)c1ccc2c(c1)OCCO2 [3:25, 5-{5-[(4-Chlorophenyl)(cyclopropylmethyl)amino]picolinoyl}-2-(3,4-ethylene-dioxybenzamido)benzoic acid] | 11 nM |  |
| COc1ccc(Oc2ccc(C(=O)c3ccc(N(CC4CC4)c4ccc(Cl)cc4)cn3)cc2C(=O)O)cc1 [1:25, 5-{5-[(4-Chlorophenyl)(cyclopropylmethyl)amino]picolinoyl}-2-(4-methoxyphenoxy)benzoic acid] | 94 nM |  |
| COc1ccc(COc2ccc(C(=O)c3ccc(N(C)c4ccc(Cl)cc4)cn3)cc2C(=O)O)cc1 [12:1, 5-{5-[(4-Chlorophenyl)(methyl)amino]picolinoyl}-2-(4-methoxybenzyloxy)benzoic acid] | 380 nM |  |
| CON=C(c1ccc(Oc2ccccc2)c(C(=O)O)c1)c1ccc(N(CC2CC2)c2ccc(Cl)cc2)cn1 (mixture of isomers) [Example 13, 5-({5-[(4-Chlorophenyl)(cyclopropylmethyl)amino]-2-pyridyl}(methoxyimino)-methyl)-2-phenoxybenzoic acid] | 242 nM |  |
| O=C(c1ccc(Oc2ccccc2Oc2ccccn2)c(C(=O)O)c1)c1ccc(N(CC2CC2)c2ccc(Cl)cc2)cn1 [1:44, 5-{5-[(4-Chlorophenyl)(cyclopropylmethyl)amino]picolinoyl}-2-[2-(2-pyridyloxy)phenoxy]benzoic acid] | 57 nM |  |
| O=C(c1ccc(Oc2ccccc2)c(C(=O)O)c1)c1ccc(N(CC2CC2)c2cccc(C(F)(F)F)c2)cn1 [1:14, 5-{5-[(Cyclopropylmethyl)(3-trifluoromethylphenyl)amino]picolinoyl}-2-phenoxybenzoic acid] | 197 nM | 100% |
| CN(c1ccc(Cl)cc1)c1cnc(C(=O)c2ccc(Oc3ccccc3)c(C(=O)O)c2)nc1 [10:3, 5-{5-[(4-Chlorophenyl)(methyl)amino]pyrimidine-2-carbonyl}-2-phenoxybenzoic acid] | 300 nM |  |
| COc1ccccc1C(=O)Nc1ccc(C(=O)c2ccc(N(C)c3ccc(Cl)cc3)cn2)cc1C(=O)O [3:5, 5-{5-[(4-Chlorophenyl)(methyl)amino]picolinoyl}-2-(2-methoxybenzamido)-benzoic acid] | 32 nM |  |
| O=C(c1ccc(Oc2ccc(F)cc2)c(C(=O)O)c1)c1ccc(N(CC2CC2)c2ccc(Cl)cc2)cn1 [1:27, 5-{5-[(4-Chlorophenyl)(cyclopropylmethyl)amino]picolinoyl}-2-(4-fluorophenoxy)-benzoic acid] | 52 nM |  |
| CN(c1ccc(Cl)cc1)c1ccc(C(=O)c2ccc(Oc3ccccc3[S+](C)[O-])c(C(=O)O)c2)nc1 (stereo not shown) [1:47, 5-{5-[(4-Chlorophenyl)(methyl)amino]picolinoyl}-2-(2-methylsulfinylphenoxy)-benzoic acid] | 1030 nM | 88% |
| CN(c1ccc(Cl)cc1)c1ccc(C(=O)c2ccc(Nc3cccc(S(C)(=O)=O)c3)c(C(=O)O)c2)nc1 [2:18, 5-{5-[(4-Chlorophenyl)(methyl)amino]picolinoyl}-2-(3-methylsulfonylphenyl-amino)benzoic acid] | 188 nM |  |
| CN(c1ccc(Cl)cc1)c1ccc(C(=O)c2ccc(C(=O)c3ccc4c(c3)OCCO4)c(C(=O)O)c2)nc1 [5:26] | 27 nM |  |
| O=C(c1ccc(Oc2ccccc2F)c(C(=O)O)c1)c1ccc(N(CC(F)(F)F)c2ccc(Cl)cc2F)cn1 [1:35, 5-{5-[(4-Chloro-2-fluorophenyl)-(2,2,2-trifluoroethyl)amino]picolinoyl}-2-(2-fluorophenoxy)benzoic acid] | 621 nM |  |
| CN(c1ccc(Cl)cc1)c1ccc(C(=O)c2ccc(NC(=O)c3ccc(C(F)(F)F)cc3)c(C(=O)O)c2)nc1 [3:1, 5-{5-[(4-Chlorophenyl)(methyl)amino]picolinoyl}-2-(4-trifluoromethylbenzamido)-benzoic acid] | 33 nM | 100% |
